Entries after “also recorded” stand apart in the source; their conditions may differ. Structures can show the parent of a compound that is named as a salt.
Tested on: healthy volunteers
Assay: 24 h long-term infusion study, AOP LDLL600 against esmolol: heart rate
Format: in vivo, human
Settings: for heart rate: Table 1
Method: A single centre prospective, randomized, double blind, crossover, pharmacokinetic, safety and tolerability study to compare long-term infusion administration of AOP LDLL600 against esmolol in healthy volunteers was performed.
Landiolol hydrochloride lyophilized (LDLL600) comprises 600 mg landiolol hydrochloride, 600 mg mannitol, pH 6.5. The primary packing of LDLL600 is 50 ml vial, the reconstitution volume is 50 ml and the final product concentration is 12 mg/mL landiolol HCl.
12 subjects were administered AOP LDLL600 or Esmolol (Brevibloc, 2500 mg/250 ml) in 1:1 ratio in double-blind, randomized, cross-over setting. PK, systemic cardiovascular and local tolerability and safety of the 24 h-long term infusions of three dose levels of both IMPs during each treatment period were assessed.
Landiolol was infused over 24 h in a dose of 10 μg/KG/min (2 hrs), followed by 20 μg/KG/min (2 hrs), followed by 40 μg/KG/min for 20 hrs.
Dosing algorithm was body weight divided by 20, 10 and 5 in ml/h giving 10, 20 and 40 μg/KG/min at a concentration of 12 mg/ml. No severe adverse drug reactions, mild local reactions, 1 severe local reaction (Esmolol High Dose).
Landiolol was infused over 24 h in a dose of 10, 20 and 40 μg/KG/min, i.e. 10 μg/KG/min landiolol were administered for 2 hrs, followed by 2 hrs administration of 20 μg/KG/min and further followed by 20 hrs administration of 40 μg/KG/min.
Post-infusion follow up measurements were performed immediately after 20 hrs administration study, i.e. 2, 4 min etc. after stop of landiolol administration.

[1] = LD infusion (landiolol 10, esmolol 50 μg/kg/min), 3 min
[2] = LD infusion (landiolol 10, esmolol 50 μg/kg/min), 4 min
[3] = LD infusion (landiolol 10, esmolol 50 μg/kg/min), 6 min
[4] = LD infusion (landiolol 10, esmolol 50 μg/kg/min), 8 min
[5] = LD infusion (landiolol 10, esmolol 50 μg/kg/min), 12 min
[6] = LD infusion (landiolol 10, esmolol 50 μg/kg/min), 16 min
[7] = LD infusion (landiolol 10, esmolol 50 μg/kg/min), 20 min
[8] = LD infusion (landiolol 10, esmolol 50 μg/kg/min), 30 min
[9] = LD infusion (landiolol 10, esmolol 50 μg/kg/min), 60 min
[10] = LD infusion (landiolol 10, esmolol 50 μg/kg/min), 90 min
[11] = LD infusion (landiolol 10, esmolol 50 μg/kg/min), 2 h
[12] = MD infusion (landiolol 20, esmolol 100 μg/kg/min, after 2 h LD), 2 min
[13] = MD infusion (landiolol 20, esmolol 100 μg/kg/min, after 2 h LD), 3 min
[14] = MD infusion (landiolol 20, esmolol 100 μg/kg/min, after 2 h LD), 4 min
[15] = MD infusion (landiolol 20, esmolol 100 μg/kg/min, after 2 h LD), 6 min
[16] = MD infusion (landiolol 20, esmolol 100 μg/kg/min, after 2 h LD), 8 min
[17] = MD infusion (landiolol 20, esmolol 100 μg/kg/min, after 2 h LD), 16 min
[18] = MD infusion (landiolol 20, esmolol 100 μg/kg/min, after 2 h LD), 20 min
[19] = MD infusion (landiolol 20, esmolol 100 μg/kg/min, after 2 h LD), 30 min
[20] = MD infusion (landiolol 20, esmolol 100 μg/kg/min, after 2 h LD), 60 min
[21] = MD infusion (landiolol 20, esmolol 100 μg/kg/min, after 2 h LD), 90 min
[22] = MD infusion (landiolol 20, esmolol 100 μg/kg/min, after 2 h LD), 2 h

COC(=O)CCc1ccc(OCC(O)CNC(C)C)cc1 (stereo not drawn) [Esmolol, Esmolol hydrochloride]
heart rate, Mean (SD) (LD infusion (landiolol 10, esmolol 50 μg/kg/min), 2 min): 66.9 (6.28) beats per minute
change of heart rate from predose, Mean (SD) [1]: −1.9 (5.34) beats per minute
heart rate, Mean (SD) [1]: 65.7 (4.91) beats per minute
change of heart rate from predose, Mean (SD) [2]: −2.1 (7.64) beats per minute
heart rate, Mean (SD) [2]: 65.6 (6.44) beats per minute
change of heart rate from predose, Mean (SD) [3]: −1.6 (5.96) beats per minute
heart rate, Mean (SD) [3]: 66.0 (4.52) beats per minute
change of heart rate from predose, Mean (SD) [4]: −2.1 (7.05) beats per minute
heart rate, Mean (SD) [4]: 65.5 (4.35) beats per minute
change of heart rate from predose, Mean (SD) [5]: −2.4 (6.77) beats per minute
heart rate, Mean (SD) [5]: 65.2 (4.74) beats per minute
change of heart rate from predose, Mean (SD) [6]: −2.3 (7.58) beats per minute
heart rate, Mean (SD) [6]: 65.4 (5.51) beats per minute
change of heart rate from predose, Mean (SD) [7]: −2.0 (9.49) beats per minute
heart rate, Mean (SD) [7]: 65.6 (7.07) beats per minute
change of heart rate from predose, Mean (SD) [8]: −5.1 (6.29) beats per minute
heart rate, Mean (SD) [8]: 62.6 (5.05) beats per minute
change of heart rate from predose, Mean (SD) [9]: −4.1 (8.00) beats per minute
heart rate, Mean (SD) [9]: 63.6 (4.67) beats per minute
change of heart rate from predose, Mean (SD) [10]: −3.5 (6.55) beats per minute
heart rate, Mean (SD) [10]: 64.1 (4.99) beats per minute
change of heart rate from predose, Mean (SD) [11]: −3.9 (7.12) beats per minute
heart rate, Mean (SD) [11]: 63.8 (4.89) beats per minute
change of heart rate from predose, Mean (SD) (MD Predose (end of 2 h LD)): −3.9 (7.12) beats per minute
heart rate, Mean (SD) (MD Predose (end of 2 h LD)): 63.8 (4.89) beats per minute
change of heart rate from predose, Mean (SD) [12]: −4.3 (10.36) beats per minute
heart rate, Mean (SD) [12]: 63.4 (7.88) beats per minute
change of heart rate from predose, Mean (SD) [13]: −5.1 (8.40) beats per minute
heart rate, Mean (SD) [13]: 62.6 (5.50) beats per minute
change of heart rate from predose, Mean (SD) [14]: −2.7 (8.96) beats per minute
heart rate, Mean (SD) [14]: 64.9 (9.04) beats per minute
change of heart rate from predose, Mean (SD) [15]: −3.8 (7.45) beats per minute
heart rate, Mean (SD) [15]: 63.9 (5.10) beats per minute
change of heart rate from predose, Mean (SD) [16]: −5.6 (7.54) beats per minute
heart rate, Mean (SD) [16]: 62.1 (4.46) beats per minute
heart rate, Mean (SD) (MD infusion (landiolol 20, esmolol 100 μg/kg/min, after 2 h LD), 12 min): 61.8 (5.07) beats per minute
change of heart rate from predose, Mean (SD) [17]: −3.5 (7.14) beats per minute
heart rate, Mean (SD) [17]: 64.1 (5.02) beats per minute
change of heart rate from predose, Mean (SD) [18]: −5.0 (7.34) beats per minute
heart rate, Mean (SD) [18]: 62.6 (4.33) beats per minute
change of heart rate from predose, Mean (SD) [19]: −5.6 (8.20) beats per minute
heart rate, Mean (SD) [19]: 62.1 (5.00) beats per minute
change of heart rate from predose, Mean (SD) [20]: −1.4 (10.41) beats per minute
heart rate, Mean (SD) [20]: 66.2 (5.04) beats per minute
change of heart rate from predose, Mean (SD) [21]: −2.2 (8.59) beats per minute
heart rate, Mean (SD) [21]: 65.4 (6.17) beats per minute
change of heart rate from predose, Mean (SD) [22]: −3.9 (7.75) beats per minute
heart rate, Mean (SD) [22]: 63.7 (4.86) beats per minute
heart rate, Mean (SD) (Predose (before first IMP administration)): 67.6 (7.87) beats per minute
heart rate (Control (before administration)): 67 beats per minute
heart rate (high dose (landiolol 40, esmolol 200 μg/kg/min), time 720 min): 67.9 beats per minute
heart rate (high dose (landiolol 40, esmolol 200 μg/kg/min), time 1200 min): 67.9 beats per minute
heart rate (low dose (landiolol 10, esmolol 50 μg/kg/min), time 12 min): 65.2 beats per minute
heart rate (low dose (landiolol 10, esmolol 50 μg/kg/min), time 16 min): 65.4 beats per minute
heart rate (low dose (landiolol 10, esmolol 50 μg/kg/min), time 30 min): 62.6 beats per minute
heart rate (low dose (landiolol 10, esmolol 50 μg/kg/min), time 60 min): 63.6 beats per minute
heart rate (low dose (landiolol 10, esmolol 50 μg/kg/min), time 120 min): 63.8 beats per minute
heart rate (medium dose (landiolol 20, esmolol 100 μg/kg/min), time 240 min): 63.7 beats per minute
heart rate (time after administration 12 min (end at 1440 min)): 74.7 beats per minute
heart rate (time after administration 16 min): 74 beats per minute
heart rate (time after administration 30 min): 76.8 beats per minute
heart rate (time after administration 60 min): 73.1 beats per minute
heart rate (time after administration 120 min): 70.2 beats per minute
overshoot effect on heart rate (after termination of long term administration, hydrochloride): the heart rate and blood pressure raise immediately over control values; also recorded: significant tolerance and overshoot effect
additive effect of raising the dose (tolerance state) (esmolol MD, HD): does not provide any additive effect
heart rate effect during administration (long term administration): relative increase of the heart rate and blood pressure already after 60 minutes of administration
tolerance effect (long term administration): significant tolerance and overshoot effect
remark on heart rate response after infusion stop (remark column of Table 2, FU time points 20 h 6 min to 21 h): overshoot
remark on heart rate response during infusion (remark column of Table 2, time points MD 60 min to HD 20 h (end)): Tolerance state
